# Laboratory results published in ChEMBL document CHEMBL3232968, “Potent airway smooth muscle relaxant effect of cynatratoside B, a steroidal glycoside isolated from Cynanchum stauntonii” (J Nat Prod, 2014).
# Legend:
# Trachea [1] = assay: Inhibition of acetylcholine-induced contraction of Sprague-Dawley rat tracheal rings after 30 mins by isometric tension technique; assay type: functional, tissue-based
# Trachea [2] = assay: Inhibition of carbachol-induced contraction of Sprague-Dawley rat tracheal rings after 30 mins by isometric tension technique; assay type: functional, tissue-based; conditions: 0.5 h
EC50 (Trachea [1]; 0.5 h) [nM],Compound,inhibition (Trachea [1]),EC50 (Trachea [2]) [nM]
850,CO[C@@H]1C[C@H](O[C@H]2[C@@H](O)C[C@H](O[C@@H]3[C@@H](C)O[C@@H](O[C@H]4CC[C@@]5(C)C(=CC[C@@H]6C(=O)O[C@@H]7CO[C@]8(C)OC=C(CC[C@@H]65)[C@H]78)C4)C[C@H]3OC)O[C@@H]2C)O[C@@H](C)[C@@H]1O,Dose-dependent effect,480
–,CC(C)NC[C@H](O)c1ccc(O)c(O)c1 [LEVISOPRENALINE],–,130
–,C[C@@H]1O[C@@H](O[C@H]2[C@H](O[C@H]3CC[C@@]4(C)[C@@H](CC[C@]5(C)[C@@H]4CC=C4[C@@H]6CC(C)(C)CC[C@]6(C(=O)O)CC[C@]45C)[C@]3(C)CO)OC[C@H](O)[C@@H]2O)[C@H](O)[C@H](O)[C@H]1O [ALPHA-HEDERIN],–,1000
